The values that follow come from US9296720B2, “Carboxamide-substituted heteroaryl-pyrazoles and the use thereof” (AiCuris GmbH & Co. KG, priority 2011, dated 2016).

For orientation: EC50 means the concentration that produces a half-maximal response.

Where two headings read alike, the source gives them in different places. Some results are limits rather than exact numbers.

Holding throughout (assay type): cell-based
Test [1] deals with HIV-1NL4-3 Wild Type. The experiment in a line: Luminescence reduction assay, MT4 cells infected with HIV-1NL4-3 luciferase reporter virus, wild type. Particulars: 2% FCS. Put shortly:
(§1)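 Compound dilution series in 1% DMSO, with 2% or 10% FCS, incubated 5 days at 37° C/5% CO2 with MT4 cells previously pellet-infected (2 h) by luciferase reporter NL4-3 virus, wild type or carrying RT resistance mutations. EC50 taken where luminescence from secreted luciferase falls to 50% of untreated infected control.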
(A reporter such as luciferase makes a cellular process visible.)

Test [2] relates to HIV-1NL4-3 K103N-Y181C. In words: Luminescence reduction assay, MT4 cells infected with HIV-1NL4-3 luciferase reporter virus, RT mutant K103N-Y181C. In a few lines:
as §1

Test [3] relates to HIV-1LAI Wild Type. The experiment in a line: AlamarBlue viability assay, HIV-1LAI-infected MT4 cells. The following applies: 10% FCS. Put shortly:
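MT4 cells infected with HIV-1LAI (MOI 0.01, supernatant infection) cultured 5 days at 37 °C with compounds in RPMI with 2% or 10% FCS, 1% DMSO final. AlamarBlue fluorescence after 3 h; EC50 as 50% protection relative to uninfected cells, CC50 from high-concentration cytotoxicity.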
(In general: Resazurin is reduced to fluorescent resorufin, in cell work by metabolically active cells.)

Where [4] appears, read: Human immunodeficiency virus 1, MT4, MT4 cells.
The mark [5] stands for this setting: Human immunodeficiency virus 1, MT4, read-out: EC50 (μM) MT4 Cells HIV-1NL4-3 K103N-Y181C 2% FCS, MT4 cells, HIV-1NL4-3 K103N-Y181C, 2% FCS.
The mark [6] stands for this setting: read-out: EC50 (μM) MT4 Cells HIV-1NL4-3 K103N-Y181C 2% FCS, MT4 cells, HIV-1NL4-3 K103N-Y181C, 2% FCS.

Take `O=C1CN(C(=O)c2cc(-c3cc(F)cc(Cl)c3)n(-c3cncc(Cl)c3)n2)CCN1` [Example 10]: the concentration giving a half-maximal response (EC50) in test [1] (setting [4]) is 0.149 µM; in test [2] (setting [5]), greater than 3.3 µM; in test [3] (setting [4]) it was 1.71 µM.
On to `O=C1CN(C(=O)c2cc(-c3cncc(OC(F)F)c3)n(-c3ccc(F)c(Cl)c3)n2)CN1` [Example 105, 1-({1-(3-Chloro-4-fluorophenyl)-5-[5-(difluoromethoxy)pyridin-3-yl]-1H-pyrazol-3-yl}carbonyl)imidazolidin-4-one], for which the EC50 stood at 0.018 µM in test [1] (setting [4]), 0.007 µM in test [2] (setting [5]) and 0.116 µM in test [3] (setting [4]).
For `Cc1cc(-n2nc(C(=O)N3CNC(=O)C3)cc2-c2cc(F)cc(Cl)c2)ccn1` [Example 21, 1-{[5-(3-Chloro-5-fluorophenyl)-1-(2-methylpyridin-4-yl)-1H-pyrazol-3-yl]carbonyl}imidazolidin-4-one], the concentration giving a half-maximal response (EC50) came to 0.092 µM in test [1] (setting [4]), 0.436 µM in test [2] (setting [5]) and 0.397 µM in test [3] (setting [4]).
Consider `O=C(c1cc(-c2cc(Br)cc(OC(F)(F)F)c2)n(-c2ccc(Cl)nc2)n1)N1CCS(=O)(=O)C1` [Example 38, {5-[3-Bromo-5-(trifluoromethoxy)phenyl]-1-(6-chloropyridin-3-yl)-1H-pyrazol-3-yl}(1,1-dioxido-1,3-thiazolidin-3-yl)methanone], for which the EC50 is 0.023 µM in test [1] (setting [4]), 0.007 µM in test [2] (setting [5]) and 1.22 µM in test [3] (setting [4]).
For the molecule `O=C(c1cc(-c2cc(Br)cc(OC(F)(F)F)c2)n(-c2ccnc(C(F)(F)F)c2)n1)N1CCS(=O)(=O)C1` [Example 52, {5-[3-Bromo-5-(trifluoromethoxy)phenyl]-1-[2-(trifluoromethyl)pyridin-4-yl]-1H-pyrazol-3-yl}(1,1-dioxido-1,3-thiazolidin-3-yl)methanone], the EC50 was 0.376 µM in test [1] (setting [4]), 0.74 µM in test [2] (setting [5]) and greater than 3.3 µM in test [3] (setting [4]).
As to `COc1cc(OC(F)(F)F)cc(-c2cc(C(=O)N3CNC(=O)C3)nn2-c2ccnc(Cl)c2)c1` [Example 86, 1-({1-(2-Chloropyridin-4-yl)-5-[3-methoxy-5-(trifluoromethoxy)phenyl]-1H-pyrazol-3-yl}carbonyl)imidazolidin-4-one], the EC50 in test [1] (setting [4]) stood at 0.014 µM; in test [2] (setting [5]), 0.011 µM; in test [3] (setting [4]), 0.065 µM.
For the molecule `O=C1CN(C(=O)c2cc(-c3cc(F)cc(Cl)c3)n(-c3cccnc3)n2)CCN1` [Example 4, 4-{[5-(3-Chloro-5-fluorophenyl)-1-(pyridin-3-yl)-1H-pyrazol-3-yl]carbonyl}piperazin-2-one], the EC50 in test [1] (setting [4]) was determined as 0.036 µM; in test [2] (setting [5]) it was 0.132 µM; in test [3] (setting [4]) it was 0.108 µM.
`O=C1CN(C(=O)c2cc(-c3cc(F)cc(Cl)c3)n(-c3ccc(Cl)nc3)n2)CN1` [Example 7, 1-{[5-(3-Chloro-5-fluorophenyl)-1-(6-chloropyridin-3-yl)-1H-pyrazol-3-yl]carbonyl}imidazolidin-4-one]: the EC50 was 0.01 µM in test [1] (setting [4]), 0.018 µM in test [2] (setting [5]) and 0.064 µM in test [3] (setting [4]).
The matching figures for `O=C1CN(C(=O)c2cc(-c3cc(Br)cc(OC(F)F)c3)n(-c3cccnc3)n2)CN1` [Example 56, 1-({5-[3-Bromo-5-(difluoromethoxy)phenyl]-1-(pyridin-3-yl)-1H-pyrazol-3-yl}carbonyl)imidazolidin-4-one]: 0.002 µM, 0.005 µM and 0.011 µM.
The matching figures for `O=C(c1cc(-c2cc(Cl)cc(OC(F)F)c2)n(-c2cccnc2)n1)N1CCSC1` [Example 82, {5-[3-Chloro-5-(difluoromethoxy)phenyl]-1-(pyridin-3-yl)-1H-pyrazol-3-yl}(1,3-thiazolidin-3-yl)methanone]: 0.016 µM, 0.307 µM and 0.348 µM.
In the case of `O=C(c1cc(-c2cc(Br)cc(OC(F)(F)F)c2)n(-c2cccnc2)n1)N1CCS(=O)(=O)C1` [Example 32, {5-[3-Bromo-5-(trifluoromethoxy)phenyl]-1-(pyridin-3-yl)-1H-pyrazol-3-yl}(1,1-dioxido-1,3-thiazolidin-3-yl)methanone], the EC50 turned out to be 0.007 µM in test [1] (setting [4]), 0.014 µM in test [2] (setting [5]) and 0.083 µM in test [3] (setting [4]).
On to `O=C(c1cc(-c2cc(Br)cc(OC(F)(F)F)c2)n(-c2cccnc2)n1)N1CC[S+]([O-])C1` (racemic) [Example 31-2, {5-[3-Bromo-5-(trifluoromethoxy)phenyl]-1-(pyridin-3-yl)-1H-pyrazol-3-yl}(1-oxido-1,3-thiazolidin-3-yl)methanone], for which the half-maximal effective concentration (EC50) in test [1] (MT4 cells) amounted to 0.01 µM; in test [2] (setting [6]), 0.041 µM; in test [3] (MT4 cells) it was 0.336 µM.
Consider `O=C1CN(C(=O)c2cc(-c3cc(Br)cc(OC(F)(F)F)c3)n(-c3ccnc(C(F)(F)F)c3)n2)CCN1` [Example 116, 4-({5-[3-Bromo-5-(trifluoromethoxy)phenyl]-1-[2-(trifluoromethyl)pyridin-4-yl]-1H-pyrazol-3-yl}carbonyl)piperazin-2-one], for which the results for the half-maximal effective concentration (EC50) in test [1] (setting [4]), in test [2] (setting [5]) and in test [3] (setting [4]) were 0.648 µM, 0.896 µM and greater than 3.3 µM, respectively.
In the case of `O=C1CN(C(=O)c2cc(-c3cc(F)cc(Cl)c3)n(-c3ccnc(Cl)c3)n2)CN1` [Example 14, 1-{[5-(3-Chloro-5-fluorophenyl)-1-(2-chloropyridin-4-yl)-1H-pyrazol-3-yl]carbonyl}imidazolidin-4-one], the figures for the EC50 in test [1] (setting [4]), in test [2] (setting [5]) and in test [3] (setting [4]) were 0.005 µM, 0.067 µM and 0.096 µM, respectively.
Regarding `O=C(c1cc(-c2cc(F)cc(Cl)c2)n(-c2ccnc(C(F)(F)F)c2)n1)N1CCS(=O)(=O)C1` [Example 20, {5-(3-Chloro-5-fluorophenyl)-1-[2-(trifluoromethyl)pyridin-4-yl]-1H-pyrazol-3-yl}(1,1-dioxido-1,3-thiazolidin-3-yl)methanone], the values for the concentration giving a half-maximal response (EC50) in test [1] (setting [4]), in test [2] (setting [5]) and in test [3] (setting [4]) were 0.162 µM, 1.39 µM and 1.46 µM, respectively.
The matching figures for `O=C1CN(C(=O)c2cc(-c3cc(Br)cc(OC(F)(F)F)c3)n(-c3ccc(F)nc3)n2)CN1` [Example 39, 1-({5-[3-Bromo-5-(trifluoromethoxy)phenyl]-1-(6-fluoropyridin-3-yl)-1H-pyrazol-3-yl}carbonyl)imidazolidin-4-one]: 0.009 µM, 0.007 µM and 0.062 µM.
For `O=C1CN(C(=O)c2cc(-c3cncc(C(F)(F)F)c3)n(-c3ccc(F)c(Cl)c3)n2)CN1` [Example 106, 1-({1-(3-Chloro-4-fluorophenyl)-5-[5-(trifluoromethyl)pyridin-3-yl]-1H-pyrazol-3-yl}carbonyl)imidazolidin-4-one], the results for the EC50 in test [1] (setting [4]), in test [2] (setting [5]) and in test [3] (setting [4]) were 0.082 µM, 0.12 µM and 0.084 µM, respectively.
The matching figures for `O=C(c1cc(-c2cc(F)cc(Cl)c2)n(-c2ccnc(C(F)(F)F)c2)n1)N1CCSC1` [Example 18]: 0.284 µM, greater than 3.3 µM and greater than 3.3 µM.
For `O=C1CN(C(=O)c2cc(-c3cc(F)cc(Cl)c3)n(-c3ccnc(C(F)(F)F)c3)n2)CCN1` [Example 17], the EC50 was 0.248 µM in test [1] (setting [4]), greater than 3.3 µM in test [2] (setting [5]) and 3.67 µM in test [3] (setting [4]).
Take `O=C(c1cc(-c2cc(F)cc(OC(F)(F)F)c2)n(-c2cccnc2)n1)N1CC[S+]([O-])C1` (racemic) [Example 60-2, {5-[3-Fluoro-5-(trifluoromethoxy)phenyl]-1-(pyridin-3-yl)-1H-pyrazol-3-yl}(1-oxido-1,3-thiazolidin-3-yl)methanone]: the figures for the concentration giving a half-maximal response (EC50) in test [1] (MT4 cells), in test [2] (setting [6]) and in test [3] (MT4 cells) were 0.084 µM, 0.446 µM and 0.797 µM, respectively.
